Data from article PMC2810428 (Journal of medicinal chemistry, 2010).

Columns and labels:
[1] = test system: SK-OV-3-MDR 1–6/6; conditions: SK-OV-3-MDR 1–6/6 vs SK-OV-3 pair; ref [32]; cited from earlier work
[2] = test system: WTβIII; conditions: WTβIII vs HeLa pair; ref [32]; cited from earlier work
[3] = test system: L1210 and B16 cells; conditions: read-out: reported IC50 values for L1210 and B16 cells; ref [3]–[5]; cited from earlier work
[4] = test system: L1210 cells; experiment: Inhibition of L1210 cell growth; assay type: cell-based, murine; conditions: L1210 IC50, 9b versus 9a
[5] = test system: MDA-MB-435 cells; experiment: Cell cycle analysis by flow cytometry; assay type: cell-based, human; conditions: paclitaxel positive control (0.0125 µM), data not shown

| SMILES | Rr (relative resistance) [1] | Rr (relative resistance) [2] | IC50 [3] | fold decrease in potency on shifting nitro group to the 3’ position [4] | cell cycle distribution [5] |
| --- | --- | --- | --- | --- | --- |
| COc1cc2c(cc1O)CC[C@@H]1[C@@H]2CC[C@]2(C)[C@@H](O)CC[C@@H]12 [2-methoxyestradiol] | 2.6 | 1.0 | – | – | – |
| COc1ccc(/C=C\c2cc(OC)c(OC)c(OC)c2)cc1O [Compound 1, Combretastatin A-4] | – | – | 3 to 7 nM | – | – |
| COc1cc(C2=NN(C(C)=O)C(c3cccc([N+](=O)[O-])c3)O2)cc(OC)c1OC (stereo not shown) [Compound 9b] | – | – | – | 9 fold | – |
| CC(=O)O[C@H]1C(=O)[C@@]2(C)[C@H]([C@H](OC(=O)c3ccccc3)[C@]3(O)C[C@H](OC(=O)[C@H](O)[C@@H](NC(=O)c4ccccc4)c4ccccc4)C(C)=C1C3(C)C)[C@]1(OC(C)=O)CO[C@@H]1C[C@@H]2O [paclitaxel] | 860 | 4.7 | – | – | identical effect |
